Laboratory results reported in patent US8802597B2, “Herbicidal pyrimidines” (E I du Pont de Nemours and Company, priority 2003, dated 2014).
Like-named read-outs stand apart in the source and are kept apart here.

Experiments:
Format in all cases: in vivo
[1] = system: velvetleaf (Abutilon theophrasti); experiment: Test B pre/postemergence; settings: Abutilon theophrasti; for pest or weed control at 62 g/ha: 62 g ai/ha; for pest or weed control at 250 g/ha: 250 g ai/ha
Method in brief: (§1)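 Plants treated pre- or postemergence were compared visually with controls after 13 to 15 days. Ratings ran from 0, no effect, to 100, complete control.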

[2] = system: morningglory (Ipomoea coccinea); experiment: Test B pre/postemergence; settings: Ipomoea; for pest or weed control at 62 g/ha: 62 g ai/ha; for pest or weed control at 250 g/ha: 250 g ai/ha
Method in brief: as §1

[3] = system: cocklebur (Xanthium strumarium); experiment: Test B pre/postemergence; settings: Xanthium strumarium; for pest or weed control at 62 g/ha: 62 g ai/ha; for pest or weed control at 250 g/ha: 250 g ai/ha
Method in brief: as §1

[4] = system: pigweed (Amaranthus retroflexus); experiment: Test B pre/postemergence; settings: Amaranthus retroflexus; for pest or weed control at 62 g/ha: 62 g ai/ha; for pest or weed control at 250 g/ha: 250 g ai/ha
Method in brief: as §1

[5] = system: crabgrass (Digitaria sanguinalis); experiment: Test B pre/postemergence; settings: Digitaria sanguinalis; for pest or weed control at 62 g/ha: 62 g ai/ha; for pest or weed control at 250 g/ha: 250 g ai/ha
Method in brief: as §1

[6] = system: Surinam grass (Brachiaria decumbens); experiment: Test B pre/postemergence; settings: Urochloa decumbens; for pest or weed control at 62 g/ha: 62 g ai/ha; for pest or weed control at 250 g/ha: 250 g ai/ha
Method in brief: as §1

[7] = system: lambsquarters (Chenopodium album); experiment: Test B pre/postemergence; settings: Chenopodium album; for pest or weed control at 62 g/ha: 62 g ai/ha; for pest or weed control at 250 g/ha: 250 g ai/ha
Method in brief: as §1

corn (Zea mays) = experiment: Test B pre/postemergence; settings: Zea mays; for Corn plant response rating (crop injury, 0 = no effect, 100 = complete kill) at 250 g/ha: 250 g ai/ha
Method in brief: as §1

[8] = system: giant foxtail (Setaria faberii); experiment: Test B pre/postemergence; settings: Setaria faberi; for pest or weed control at 62 g/ha: 62 g ai/ha; for pest or weed control at 250 g/ha: 250 g ai/ha
Method in brief: as §1

[9] = system: barnyardgrass (Echinochloa crus-galli); experiment: Test B pre/postemergence; settings: Echinochloa crus-galli; for pest or weed control at 62 g/ha: 62 g ai/ha; for pest or weed control at 250 g/ha: 250 g ai/ha
Method in brief: as §1

[10] = system: wheat (Triticum aestivum); experiment: Test B pre/postemergence; settings: Triticum aestivum; for plant injury at 62 g/ha: 62 g ai/ha; for plant injury at 250 g/ha: 250 g ai/ha
Method in brief: as §1

[11] = system: duck salad (Heteranthera limosa); experiment: Test B flooded paddy test; settings: Heteranthera limosa, Flood, 1000 g ai/ha; scale 0 to 100; read-out: Plant response rating, Ducksalad
Method in brief: (§2)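 Plants were grown to the 2-leaf stage before treatment, then kept in a greenhouse for 13 to 15 days. Injury was rated visually against untreated controls on a 0 to 100 scale, where 0 is no effect and 100 is complete control.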

[12] = system: umbrella sedge (Cyperus difformis); experiment: Test B flooded paddy test; settings: Cyperus difformis, Flood, 1000 g ai/ha; scale 0 to 100; read-out: Plant response rating, Sedge, Umbrella
Method in brief: as §2

rice (Oryza sativa) = experiment: Test B flooded paddy test; settings: Oryza sativa, Flood, 1000 g ai/ha; scale 0 to 100; read-out: Plant response rating, Rice
Method in brief: as §2

[13] = system: barnyardgrass (Echinochloa crus-galli); experiment: Test B flooded paddy test; settings: Echinochloa crus-galli, Flood, 1000 g ai/ha; scale 0 (no effect) to 100 (complete control); read-out: Plant response rating, Barnyardgrass
Method in brief: as §2

wild oat (Avena fatua) = experiment: Test B postemergence; settings: Avena fatua, post-emergence
Method in brief: as §1

[14] = system: blackgrass (Alopecurus myosuroides); experiment: Test B postemergence; settings: Alopecurus myosuroides, post-emergence
Method in brief: as §1

[15] = pre-emergence, Preemergence, scale 0 to 100 (0 no effect, 100 complete control), read-out: Plant response rating, Barnyardgrass
[16] = pre-emergence, Preemergence, scale 0 to 100 (0 no effect, 100 complete control), read-out: Plant response rating, Wheat

Molecule `CCOC(=O)c1nc(C2CC2)nc(N)c1Br` [Compound 1, ethyl 6-amino-5-bromo-2-cyclopropyl-4-pyrimidinecarboxylate] has a pest or weed control at 62 g/ha ([1]; post-emergence, Postemergence, scale 0 to 100 (0 no effect, 100 complete control), read-out: Velvetleaf plant response rating) of 90%, a pest or weed control at 250 g/ha ([1]; post-emergence, Postemergence, scale 0 to 100, read-out: Plant response rating, Velvetleaf) of 90% and a pest or weed control at 62 g/ha ([1]; pre-emergence, Preemergence, scale 0 to 100, 0 no effect, 100 complete control, read-out: Plant response rating, Velvetleaf) of 90%. For the same molecule, the pest or weed control at 250 g/ha ([1]; pre-emergence, Preemergence, scale 0 to 100 (0 no effect, 100 complete control), read-out: Plant response rating, Velvetleaf) was 100%, the pest or weed control at 62 g/ha ([2]; post-emergence, Postemergence, scale 0 to 100 (0 no effect, 100 complete control), read-out: Morningglory plant response rating) was 90% and the pest or weed control at 250 g/ha ([2]; post-emergence, Postemergence, scale 0 to 100, read-out: Plant response rating, Morningglory) was 100%. The pest or weed control at 62 g/ha ([2]; pre-emergence, Preemergence, scale 0 to 100, 0 no effect, 100 complete control, read-out: Plant response rating, Morningglory) was 90%, the pest or weed control at 250 g/ha ([2]; pre-emergence, Preemergence, scale 0 to 100 (0 no effect, 100 complete control), read-out: Plant response rating, Morningglory) was 100% and the pest or weed control at 62 g/ha ([3]; post-emergence, Postemergence, scale 0 to 100 (0 no effect, 100 complete control), read-out: Cocklebur plant response rating) was 90%. The pest or weed control at 250 g/ha ([3]; post-emergence, Postemergence, scale 0 to 100, read-out: Plant response rating, Cocklebur) was 90%, the pest or weed control at 62 g/ha ([3]; pre-emergence, Preemergence, scale 0 to 100, 0 no effect, 100 complete control, read-out: Plant response rating, Cocklebur) was 90% and the pest or weed control at 250 g/ha ([3]; pre-emergence, Preemergence, scale 0 to 100 (0 no effect, 100 complete control), read-out: Plant response rating, Cocklebur) was 100%. The pest or weed control at 62 g/ha ([4]; post-emergence, Postemergence, scale 0 to 100 (0 no effect, 100 complete control), read-out: Pigweed plant response rating) was 90%, the pest or weed control at 250 g/ha ([4]; post-emergence, Postemergence, scale 0 to 100, read-out: Plant response rating, Pigweed) was 100% and the pest or weed control at 62 g/ha ([4]; pre-emergence, Preemergence, scale 0 to 100, 0 no effect, 100 complete control, read-out: Plant response rating, Pigweed) was 90%. For the same molecule, the pest or weed control at 250 g/ha ([4]; pre-emergence, Preemergence, scale 0 to 100 (0 no effect, 100 complete control), read-out: Plant response rating, Pigweed) was 100%, the pest or weed control at 62 g/ha ([5]; post-emergence, Postemergence, scale 0 to 100 (0 no effect, 100 complete control), read-out: Crabgrass plant response rating) was 70% and the pest or weed control at 250 g/ha ([5]; post-emergence, Postemergence, scale 0 to 100, read-out: Plant response rating, Crabgrass) was 90%. The pest or weed control at 62 g/ha ([5]; pre-emergence, Preemergence, scale 0 to 100, 0 no effect, 100 complete control, read-out: Plant response rating, Crabgrass) was 90%, the pest or weed control at 250 g/ha ([5]; pre-emergence, Preemergence, scale 0 to 100 (0 no effect, 100 complete control), read-out: Plant response rating, Crabgrass) was 90% and the pest or weed control at 62 g/ha ([6]; post-emergence, Postemergence, scale 0 to 100 (0 no effect, 100 complete control), read-out: Surinam Grass plant response rating) was 60%. For the same molecule, the pest or weed control at 250 g/ha ([6]; post-emergence, Postemergence, scale 0 to 100, read-out: Plant response rating, Surinam Grass) was 90%, the pest or weed control at 250 g/ha ([6]; pre-emergence, Preemergence, scale 0 to 100 (0 no effect, 100 complete control), read-out: Plant response rating, Surinam Grass) was 80% and the pest or weed control at 62 g/ha ([6]; pre-emergence, Preemergence, scale 0 to 100, 0 no effect, 100 complete control, read-out: Plant response rating, Surinam Grass) was 50%. For the same molecule, the pest or weed control at 62 g/ha ([7]; post-emergence, Postemergence, scale 0 to 100 (0 no effect, 100 complete control), read-out: Lambsquarters plant response rating) was 100%, the pest or weed control at 250 g/ha ([7]; post-emergence, Postemergence, scale 0 to 100, read-out: Plant response rating, Lambsquarters) was 100% and the pest or weed control at 62 g/ha ([7]; pre-emergence, Preemergence, scale 0 to 100, 0 no effect, 100 complete control, read-out: Plant response rating, Lambsquarters) was 100%. It also gave a pest or weed control at 250 g/ha ([7]; pre-emergence, Preemergence, scale 0 to 100 (0 no effect, 100 complete control), read-out: Plant response rating, Lambsquarters) of 100%, a plant injury at 62 g/ha (corn (Zea mays); post-emergence, Postemergence, 62 g ai/ha, scale 0 to 100 (0 no effect, 100 complete control), read-out: Corn plant response rating) of 30% and a Corn plant response rating (crop injury, 0 = no effect, 100 = complete kill) at 250 g/ha (corn (Zea mays); post-emergence, Postemergence, scale 0 to 100) of 70%. For the same molecule, the Corn plant response rating (crop injury, 0 = no effect, 100 = complete kill) at 62 g/ha (corn (Zea mays); pre-emergence, Preemergence, 62 g ai/ha, scale 0 to 100, 0 no effect, 100 complete control) was 20%, the Corn plant response rating (crop injury, 0 = no effect, 100 = complete kill) at 250 g/ha (corn (Zea mays); pre-emergence, Preemergence, scale 0 to 100 (0 no effect, 100 complete control)) was 80% and the pest or weed control at 62 g/ha ([8]; post-emergence, Postemergence, scale 0 to 100 (0 no effect, 100 complete control), read-out: Foxtail, Giant plant response rating) was 50%. For the same molecule, the pest or weed control at 250 g/ha ([8]; post-emergence, Postemergence, scale 0 to 100, read-out: Plant response rating, Foxtail, Giant) was 80%, the pest or weed control at 250 g/ha ([8]; pre-emergence, Preemergence, scale 0 to 100 (0 no effect, 100 complete control), read-out: Plant response rating, Foxtail, Giant) was 90% and the pest or weed control at 62 g/ha ([8]; pre-emergence, Preemergence, scale 0 to 100, 0 no effect, 100 complete control, read-out: Plant response rating, Foxtail, Giant) was 30%. It also gave a pest or weed control at 62 g/ha ([9]; post-emergence, Postemergence, scale 0 to 100 (0 no effect, 100 complete control), read-out: Barnyardgrass plant response rating) of 50%, a pest or weed control at 250 g/ha ([9]; post-emergence, Postemergence, scale 0 to 100, read-out: Plant response rating, Barnyardgrass) of 90% and a pest or weed control at 62 g/ha [9, 15] of 60%. The pest or weed control at 250 g/ha [9, 15] was 90%, the plant injury at 62 g/ha ([10]; post-emergence, Postemergence, scale 0 to 100 (0 no effect, 100 complete control), read-out: Wheat plant response rating) was 30% and the plant injury at 250 g/ha ([10]; post-emergence, Postemergence, scale 0 to 100, read-out: Plant response rating, Wheat) was 70%. For the same molecule, the plant injury at 62 g/ha [10, 16] was 30%, the plant injury at 250 g/ha [10, 16] was 60% and the pest or weed control at 1000 g/ha [11] was 80%. It also gave a pest or weed control at 1000 g/ha [12] of 20%, a plant injury at 1000 g/ha (rice (Oryza sativa)) of 70% and a pest or weed control at 1000 g/ha [13] of 80%. It also gave a pest or weed control at 62 g/ha (wild oat (Avena fatua); 62 g ai/ha, scale 0 to 100 (0 no effect, 100 complete control), read-out: Oat, Wild plant response rating) of 20%, a pest or weed control at 250 g/ha (wild oat (Avena fatua); 250 g ai/ha, scale 0 to 100, read-out: Plant response rating, Oat, Wild) of 60% and a pest or weed control at 62 g/ha ([14]; 62 g ai/ha, scale 0 to 100 (0 no effect, 100 complete control), read-out: Blackgrass plant response rating) of 40%. For the same molecule, the pest or weed control at 250 g/ha ([14]; 250 g ai/ha, scale 0 to 100, read-out: Plant response rating, Blackgrass) was 70%.
